Where two headings read alike, the source gives them in different places. Ends that are not written are not given here. Peptide text beside a SMILES is read from it.
Experiments:
VcMbnBC = assay: ITC measurement of VcMbnA and variants binding affinity to VcMbnBC; design: species or system Vibrio caribbenthicus BAA-2122
Experimental: MbnBC and the mutant proteins were all purified using the two-step standard method described above. The purified proteins were adjusted to 1 mg/mL and stored in 25 mM HEPES (pH 8.0) and 100 mM NaCl for ITC measurement. The MbnAs were dissolved and diluted to a working concentration of 2 mM in distilled water. ITC experiments were performed on a Nano ITC (Nano ITC-Low Volume; TA instrument, USA). Settings for the MbnA binding assay were optimized as follows: the titration assay was performed at 16 °C by injecting 2.5 μL MbnA peptide into a full cell containing 190 μL MbnBC or mutant MbnBC proteins every 120 s for a total of 20 injections, and the stirrer syringe stirring speed was set at 250 rpm.

RrMbnBC [1] = target: T1, RrMbnBC (Rugamonas rubra, UniProt A0A1I4IFH0+A0A1I4IFL0); assay: Limited proteolysis assay of RrMbnBC with MbnA; design: species or system Rugamonas rubra ATCC 43154; details: ~20 µM RrMbnBC incubated with MbnA 1 h at 4 °C, trypsin 30 min on ice, SDS-PAGE
T1 sequence (A0A1I4IFL0 1-277): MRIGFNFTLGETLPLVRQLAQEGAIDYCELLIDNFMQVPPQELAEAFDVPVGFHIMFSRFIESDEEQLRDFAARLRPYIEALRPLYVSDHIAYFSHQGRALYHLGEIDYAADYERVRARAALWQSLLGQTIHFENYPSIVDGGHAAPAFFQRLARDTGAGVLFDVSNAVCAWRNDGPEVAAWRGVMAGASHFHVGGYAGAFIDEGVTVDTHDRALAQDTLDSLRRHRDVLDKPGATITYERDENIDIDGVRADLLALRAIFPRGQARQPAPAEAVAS
T1 sequence (A0A1I4IFH0 1-199): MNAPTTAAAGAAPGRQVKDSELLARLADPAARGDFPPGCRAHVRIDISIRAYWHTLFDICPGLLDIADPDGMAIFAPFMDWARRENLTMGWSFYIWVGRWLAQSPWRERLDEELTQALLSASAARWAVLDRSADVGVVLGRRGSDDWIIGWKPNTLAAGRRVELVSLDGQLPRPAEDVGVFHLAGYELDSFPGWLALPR
Experimental: The limited proteolysis assay allows the characterization of the increase in stability of wild-type proteins upon binding to their substrates. The VcMbnBC and RrMbnBC proteins used in this assay were all adjusted to an equal molar concentration of about 20 µM. The RrMbnBC or VcMbnBC complex, by itself or after incubation with the corresponding MbnA peptide for 1 h at 4 °C, was digested by trypsin. After 30 min of incubation on ice, the proteolyzed products were analyzed by SDS-PAGE and visualized by Coomassie blue staining.

RrMbnBC [2] = target: T1, RrMbnBC; assay: UV-Vis activity assay, MbnA modification by RrMbnBC; assay type: biochemical, Rugamonas rubra ATCC 43154; details: co-expressed in Escherichia coli
Experimental: Standard UV-Vis spectra detection was performed on a UV-Vis and Vis instrument (Ultrospec 2100 pro, Biochrom, UK) at room temperature. MtMbnBC and RrMbnBC proteins were adjusted to 5 mg/mL (nearly 100 μM), and VcMbnBC was adjusted to a concentration of 1 mg/mL (nearly 20 μM). The corresponding substrates, VcMbnA, RrMbnA, MtMbnA, and their variants (Supplementary information, Table S5), were dissolved in distilled water and diluted to a working concentration of 5 mM with buffer B. The reaction was initiated when 100 μL MbnBC proteins and 5 μL MbnA peptides were applied to the reaction system, and the reaction was diluted up to 1 mL with buffer B. The mixture was then added into a quartz cuvette and recorded at 20-s intervals for a total of 50 reads at room temperature. For assays using anaerobically prepared MbnBC proteins, the measurements were immediately recorded by adding the anaerobically prepared MbnBC into the reaction system, with peptides pre-mixed in the quartz cuvette. The buffer B used in the assay was O2-saturated at room temperature.
For the stopped-flow UV-Vis spectroscopic analysis, 10 μM MtMbnBC or RrMbnBC or 2 μM VcMbnBC was incubated with 250 μM MbnA peptides at room temperature for 1 h, followed by detection on a UV-Vis and Vis instrument (Nanodrop One, Thermo Scientific, MA). Data were processed by Graphpad Prism version 8.3.

VcMbnBC complex = target: T2, VcMbnBC complex (Vibrio caribbenthicus BAA-2122); assay: ITC
T2 chain 1: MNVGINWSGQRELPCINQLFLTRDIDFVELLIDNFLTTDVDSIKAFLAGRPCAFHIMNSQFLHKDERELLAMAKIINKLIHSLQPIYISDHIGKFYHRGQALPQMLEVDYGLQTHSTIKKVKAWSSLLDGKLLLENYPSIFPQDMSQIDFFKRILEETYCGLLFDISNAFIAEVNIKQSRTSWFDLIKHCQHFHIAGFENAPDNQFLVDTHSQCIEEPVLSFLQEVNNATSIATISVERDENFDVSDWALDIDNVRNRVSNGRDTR
T2 chain 2: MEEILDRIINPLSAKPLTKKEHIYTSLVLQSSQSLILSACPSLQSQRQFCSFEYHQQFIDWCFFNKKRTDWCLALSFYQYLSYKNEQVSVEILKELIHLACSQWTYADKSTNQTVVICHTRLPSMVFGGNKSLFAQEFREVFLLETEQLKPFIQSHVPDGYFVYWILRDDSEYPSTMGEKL

RrMbnBC complex [3] = target: T3, RrMbnBC complex (Rugamonas rubra ATCC 43154); assay: ITC
T3 chain 1: T1 sequence (A0A1I4IFL0 1-277)
T3 chain 2: T1 sequence (A0A1I4IFH0 1-199)

RrMbnBC complex [4] = target: T3, RrMbnBC complex; assay: ITC

How did the “interaction with VcMbnBC (binding assays, in words)” value (VcMbnBC; ITC binding assays of VcMbnBC with VcMbnA variants) turn out when MKNDKKVVVKVKDKEM [LP] was run?
Its value is “weak interaction”.

And the Kd (VcMbnBC; ITC, 16 °C, 2 mM peptide, 20 injections of 2.5 μL into 190 μL VcMbnBC 1 mg/mL in 25 mM HEPES pH 8.0, 100 mM NaCl, one-site binding, read-out: Kd, VcMbnA or variant/VcMbnBC)?
Its Kd is 63.8 ± 10.5 µM.

Which “effect on RrMbnBC stability in limited proteolysis” value (RrMbnBC [1]) does the source give for `CC[C@H](C)[C@H](NC(=O)[C@H](CCC(=O)O)NC(=O)[C@@H](NC(=O)[C@H](CCCCN)NC(=O)[C@H](CCCCN)NC(=O)[C@@H](NC(=O)[C@@H](NC(=O)[C@@H](NC(=O)[C@@H](NC(=O)[C@H](CCCCN)NC(=O)[C@@H](N)CCSC)[C@@H](C)CC)C(C)C)[C@@H](C)CC)C(C)C)C(C)C)C(=O)N[C@@H](CCC(N)=O)C(=O)N[C@H](C(=O)N[C@@H](C)C(=O)NCC(=O)N[C@@H](CCCNC(=N)N)C(=O)N[C@H](C(=O)NCC(=O)N[C@@H](CCSC)C(=O)N[C@@H](CCCNC(=N)N)C(=O)N[C@@H](CS)C(=O)N[C@@H](C)C(=O)N[C@@H](CO)C(=O)N[C@@H](CO)C(=O)N[C@@H](CS)C(=O)NCC(=O)N[C@@H](C)C(=O)N[C@@H](CCCCN)C(=O)N[C@@H](CO)C(=O)O)[C@@H](C)O)C(C)C` [RrMbnA] (H-MKIVIVKKVEIQVAGRTGMRCASSCGAKS-OH) here?
The value was “enhance RrMbnBC stability”.

And the “modification by co-expressed RrMbnBC, UV-Vis absorption at ~335 nm” value (RrMbnBC [2])?
Its value is “could be modified”.

B1: VcMbnA peptide (peptide)
peptide: MKNDKKVVVKVKDKEMTCGAFNK
Which Kd (VcMbnBC complex) does the source give for B1 here?
The Kd was 3 µM.

And the Kd (RrMbnBC complex [3])?
The Kd was 4.14 µM.

B2: RrMbnA peptide (peptide)
peptide: MKIVIVKKVEIQVAGRTGMRCASSCGAKS
With B2 as the molecule, how does the Kd (RrMbnBC complex [4]) read?
Its Kd is 2.7 µM.
